From patent US20110053773A1, “METHODS OF IMPROVING NUTRITIONAL VALUE OF PLANTS” (UNIVERSITY OF TENNESSEE RESEARCH FOUNDATION, priority 2009, published 2011)

Legend:
[1] = system: sweet corn (Zea mays var. rugosa) cultivar 'Incredible'; experiment: Content analysis of sweet corn ears: crude protein, amino acids, detergent fiber, fatty acids, minerals (Example 1); assay type: in vivo; settings: POST at b59 rates; every treatment incl. check also got atrazine 560 g ai/ha + COC 1% v/v; relative to treated check (atrazine), check=0
From the text: Herbicide treatments were applied in a water carrier at 23 gallons of solution per acre on a field site near Knoxville, Tenn. and Painter, Va. Treatments include the following: 1) nicosulfuron at 35 g ai/ha (Accent); 2) mesotrione at 105 g ai/ha (Callisto); 3) nicosulfuron at 35 g ai/ha+mesotrione at 105 g ai/ha (Callisto+Accent); 4) tembotrione at 92 g ai/ha+isoxadifen-ethyl at 46 g ai/ha (Laudis); 5) topramezone at 15 g ai/ha (Impact); 6) nicosulfuron at 35 g ai/ha+isoxadifen-ethyl at 9 g ai/ha (Accent Q); 7) nicosulfuron at 35 g ai/ha+isoxadifen-ethyl at 9 g ai/ha+topramezone at 15 g ai/ha (Accent Q+Impact); 8) nicosulfuron 35 g ai/ha+isoxadifen-ethyl at 9 g ai/ha+mesotrione at 105 g ai/ha (Accent Q+Callisto); 9) treated check (atrazine or Aatrex). All treatments included a PRE application of atrazine plus metolachlor in order to maintain weed free conditions. In addition, all POST treatments (including the treated check) included atrazine at 560 g ai/ha and crop oil concentrate at 1% v/v. […] Sweet corn was harvested from the center two rows of each four row plot and weighed in the husk.

[2] = system: sweet corn cultivars 'Merit', 'Temptation', 'Incredible'; experiment: Visual leaf tissue bleaching of sweet corn (Example 3, Table 9); assay type: in vivo; settings: mesotrione 105, atrazine 560 g ai/ha
Procedure: (§1) Studies were conducted in a field in Knoxville, Tenn. to ascertain the growth, stress tolerance and nutritional quality differences following postemergence applications of herbicides mesotrione and atrazine, alone and in mixtures together, on the young sweet corn cultivars: ‘Merit’ (yellow-kernel sensitive genotype), ‘Temptation’ (bicolor tolerant genotype), and ‘Incredible’ (yellow-kernel moderately sensitive genotype).
(§2) Herbicide treatments were applied as follows: 1) untreated control; 2) mesotrione (meso) at 105 g ai/ha EPOST; 3) mesotrione at 105+atrazine at 560 g ai/ha EPOST; 4) atrazine at 560 g ai/ha EPOST; 5) mesotrione at 105 g ai/ha LPOST; 6) mesotrione at 105+atrazine at 560 g ai/ha LPOST; and 7) atrazine at 560 g ai/ha LPOST. Visual ratings of plant growth were taken during season, and kernels for carotenoids were measured at harvest.

[3] = system: sweet corn cultivars 'Merit', 'Temptation', 'Incredible'; experiment: Kernel carotenoids of sweet corn after mesotrione and atrazine (Example 3); assay type: in vivo; design: Kernel carotenoids: Lutein / Kernel carotenoids: Zeaxanthin: unit not given here; settings: mesotrione 105, atrazine 560 g ai/ha
Procedure: as §1, §2

[4] = system: basil ‘Genovese’; experiment: Yield, fresh weight of basil after insecticide, fungicide, PGRs and safeners (Example 4, Table 10); assay type: in vivo; settings: DA-A, check 31.8
Procedure: (§3) Greenhouse and laboratory studies were conducted to ascertain the tolerance and nutritional quality differences following postemergence applications of the insecticide chlorpyrifos, the fungicide chlorothalonil, the PGRs mepiquat-chloride and paclobutrazol, and the safeners napthalic anhydride and isoxadifen-ethyl on kale ‘Red Russian’ and basil ‘Genovese’. Visual injury was rated based on general phytotoxicity, chlorosis, and visual stunting and each measurement was based on a percent scale from 0 to 100 where 0 equals no visual response and 100 equals complete plant death. Kale and basil were both harvested approximately 4 weeks after treatments and plants were pooled over replicates for content analysis of crude protein, crude amino acid content, acid detergent fiber, neutral detergent fiber, total fatty acids, and/or key mineral content (including Na, Ca, P, Mg, K, Fe, Mn, Zn, and Cu). In addition, the amounts of key individual amino acids (aspartic acid, threonine, glutamic acid, proline, glycine, cysteine, valine, leucine, isoleucine, methionine, and lysine) and composite classifications of fatty acid (saturated fatty acids, monounsaturated fatty acids, polyunsaturated fatty acids) were also analyzed from these sub-samples for kale (Tables 10-14).

[5] = system: basil 'Genovese'; experiment: Visual injury of basil after insecticide, fungicide, PGRs, safeners (Example 4)
Procedure: as §3

[6] = system: basil 'Genovese'; experiment: Content analysis of basil: protein, minerals (Example 4, Tables 10-11); assay type: in vivo; settings: 28 DA-A
Procedure: as §3

[7] = 'Incredible' moderately sensitive genotype, EPOST
[8] = 'Incredible' moderately sensitive genotype, LPOST
[9] = 'Merit' sensitive genotype, EPOST
[10] = 'Merit' sensitive genotype, LPOST
[11] = rates g ai/ha: chlropyrifos 1120, chlorothalonil 2630, paclobutrazol 3.23, mepiquat-chloride 12.3, Isoxadifen 8, Napthalic anhydride 264, + NIS 0.25 % v/v
[12] = 7 DA-A, rates g ai/ha: chlropyrifos 1120, chlorothalonil 2630, paclobutrazol 3.23, mepiquat-chloride 12.3, Isoxadifen 8, Napthalic anhydride 264, + NIS 0.25 % v/v
[13] = 7 DA-A, rates g ai/ha: chlropyrifos 3370, chlorothalonil 7900, paclobutrazol 9.7, mepiquat-chloride 37, Isoxadifen 16, Napthalic anhydride 527, + NIS 0.25 % v/v
[14] = 14 DA-A, rates g ai/ha: chlropyrifos 1120, chlorothalonil 2630, paclobutrazol 3.23, mepiquat-chloride 12.3, Isoxadifen 8, Napthalic anhydride 264, + NIS 0.25 % v/v
[15] = 14 DA-A, rates g ai/ha: chlropyrifos 3370, chlorothalonil 7900, paclobutrazol 9.7, mepiquat-chloride 37, Isoxadifen 16, Napthalic anhydride 527, + NIS 0.25 % v/v
[16] = 28 DA-A, rates g ai/ha: chlropyrifos 1120, chlorothalonil 2630, paclobutrazol 3.23, mepiquat-chloride 12.3, Isoxadifen 8, Napthalic anhydride 264, + NIS 0.25 % v/v
[17] = 28 DA-A, rates g ai/ha: chlropyrifos 3370, chlorothalonil 7900, paclobutrazol 9.7, mepiquat-chloride 37, Isoxadifen 16, Napthalic anhydride 527, + NIS 0.25 % v/v
[18] = rates g ai/ha: chlroprifos 3370, chlorothalonil 7900, paclobutrazol 9.7, mepiquat-chloride 37, Isoxadifen 16, Napthalic anhydride 527, + NIS 0.25 % v/v

## CCNc1nc(Cl)nc(NC(C)C)n1 [Atrazine*AATREX, atrazine]
[1]
  Acid DF: 0 % of check
  Alanine: 0 % of check
  Amino Acid: 0 % of check
  Aspartic ac: 0 % of check
  Cysteine: 0 % of check
  Glutamic ac: 0 % of check
  Glycine: 0 % of check
  Isoleucine: 0 % of check
  Leucine: 0 % of check
  Lysine: 0 % of check
  Methionine: 0 % of check
  Neutral DF: 0 % of check
  Proline: 0 % of check
  Protein: 0 % of check
  Threonine: 0 % of check
  Valine: 0 % of check
  calcium: 0 % of check
  copper: 0 % of check
  iron: 0 % of check
  magnesium: 0 % of check
  manganese: 0 % of check
  mon fattyac: 0 % of check
  phosphorous: 0 % of check
  polyfattyac: 0 % of check
  potassium: 0 % of check
  sat fattyac: 0 % of check
  sodium: 0 % of check
  tot fattyac: 0 % of check
  zinc: 0 % of check
[2]; ‘Incredible’, 7 DAT, EPOST
  Leaf Tissue Visual Bleaching (%): 13%
[2]; ‘Incredible’, 7 DAT, LPOST
  Leaf Tissue Visual Bleaching (%): 0%
[2]; ‘Incredible’, 14 DAT, EPOST
  Leaf Tissue Visual Bleaching (%): 13%
[2]; ‘Incredible’, 14 DAT, LPOST
  Leaf Tissue Visual Bleaching (%): 0%
[2]; ‘Incredible’, 21 DAT, EPOST
  Leaf Tissue Visual Bleaching (%): 0%
[2]; ‘Incredible’, 21 DAT, LPOST
  Leaf Tissue Visual Bleaching (%): 0%
[2]; ‘Merit’, 7 DAT, EPOST
  Leaf Tissue Visual Bleaching (%): 3%
[2]; ‘Merit’, 7 DAT, LPOST
  Leaf Tissue Visual Bleaching (%): 0%
[2]; ‘Merit’, 14 DAT, EPOST
  Leaf Tissue Visual Bleaching (%): 2%
[2]; ‘Merit’, 14 DAT, LPOST
  Leaf Tissue Visual Bleaching (%): 0%
[2]; ‘Merit’, 21 DAT, EPOST
  Leaf Tissue Visual Bleaching (%): 0%
[2]; ‘Merit’, 21 DAT, LPOST
  Leaf Tissue Visual Bleaching (%): 0%
[3]; [7]
  Lutein % change from untreated control: +7.6%
  Zeaxanthin % change from untreated control: −0.0%
[3]; 'Incredible' moderately sensitive genotype, EPOST, untreated 0.328
  Kernel carotenoids: Lutein: 0.353
[3]; 'Incredible' moderately sensitive genotype, EPOST, untreated 0.448
  Kernel carotenoids: Zeaxanthin: 0.447
[3]; [8]
  Lutein % change from untreated control: +6.0%
  Zeaxanthin % change from untreated control: +1.3%
[3]; 'Incredible' moderately sensitive genotype, LPOST, untreated 0.328
  Kernel carotenoids: Lutein: 0.347
[3]; 'Incredible' moderately sensitive genotype, LPOST, untreated 0.448
  Kernel carotenoids: Zeaxanthin: 0.454
[3]; [9]
  Kernel carotenoids: Lutein: 0.692
  Lutein % change from untreated control: +9.5%
  Zeaxanthin % change from untreated control: +10.8%
[3]; 'Merit' sensitive genotype, EPOST, untreated 0.509
  Kernel carotenoids: Zeaxanthin: 0.564
[3]; [10]
  Kernel carotenoids: Lutein: 0.664
  Lutein % change from untreated control: +5.1%
  Zeaxanthin % change from untreated control: +8.1%
[3]; 'Merit' sensitive genotype, LPOST, untreated 0.509
  Kernel carotenoids: Zeaxanthin: 0.550

## CCOC(=O)C1=NOC(c2ccccc2)(c2ccccc2)C1 [isoxadifen, isoxadifen-ethyl]
[4]; [11]
  Yield Fresh weight: 34.2 grams
[4]; rates g ai/ha: chlropyrifos 3370, chlorothalonil 7900, paclobutrazol 9.7, mepiquat-chloride 37, Isoxadifen 16, Napthalic anhydride 527, + NIS 0.25 % v/v
  Yield Fresh weight: 36.9 grams
[5]; [12]
  Phytotoxicity Chlorosis: 8%
  Phytotoxicity General: 3%
  Phytotoxicity Stunting: 2%
[5]; [13]
  Phytotoxicity Chlorosis: 7%
  Phytotoxicity General: 7%
  Phytotoxicity Stunting: 7%
[5]; [14]
  Phytotoxicity Chlorosis: 5%
  Phytotoxicity General: 2%
  Phytotoxicity Stunting: 5%
[5]; [15]
  Phytotoxicity Chlorosis: 8%
  Phytotoxicity General: 8%
  Phytotoxicity Stunting: 10%
[5]; [16]
  Phytotoxicity Chlorosis: 2%
  Phytotoxicity General: 2%
  Phytotoxicity Stunting: 5%
[5]; [17]
  Phytotoxicity Chlorosis: 0%
  Phytotoxicity General: 7%
  Phytotoxicity Stunting: 8%
[6]; [18]
  ADF, Percent Increase Over the Untreated Check (on a % dry matter basis): 13 % check
  Calcium, Percent Increase Over the Untreated Check (on a % dry matter basis): 6 % check
  Copper, Percent Increase Over the Untreated Check (on a % dry matter basis): 0 % check
  Iron, Percent Increase Over the Untreated Check (on a % dry matter basis): 27 % check
  Magnesium, Percent Increase Over the Untreated Check (on a % dry matter basis): 12 % check
  Manganese, Percent Increase Over the Untreated Check (on a % dry matter basis): 118 % check
  NDF, Percent Increase Over the Untreated Check (on a % dry matter basis): 0 % check
  Phosphorous, Percent Increase Over the Untreated Check (on a % dry matter basis): 28 % check
  Potassium, Percent Increase Over the Untreated Check (on a % dry matter basis): 16 % check
  Protein, Percent Increase Over the Untreated Check (on a % dry matter basis): 22 % check
  Sodium, Percent Increase Over the Untreated Check (on a % dry matter basis): 17 % check
  Soluble protein, Percent Increase Over the Untreated Check (on a % dry matter basis): 4 % check
  Zinc, Percent Increase Over the Untreated Check (on a % dry matter basis): 34 % check
[6]; [11]
  ADF, Percent Increase Over the Untreated Check (on a % dry matter basis): 6 % check
  Calcium, Percent Increase Over the Untreated Check (on a % dry matter basis): −2 % check
  Copper, Percent Increase Over the Untreated Check (on a % dry matter basis): 0 % check
  Iron, Percent Increase Over the Untreated Check (on a % dry matter basis): 25 % check
  Magnesium, Percent Increase Over the Untreated Check (on a % dry matter basis): 9 % check
  Manganese, Percent Increase Over the Untreated Check (on a % dry matter basis): 10 % check
  NDF, Percent Increase Over the Untreated Check (on a % dry matter basis): 1 % check
  Phosphorous, Percent Increase Over the Untreated Check (on a % dry matter basis): 17 % check
  Potassium, Percent Increase Over the Untreated Check (on a % dry matter basis): 17 % check
  Protein, Percent Increase Over the Untreated Check (on a % dry matter basis): 14 % check
  Sodium, Percent Increase Over the Untreated Check (on a % dry matter basis): 27 % check
  Soluble protein, Percent Increase Over the Untreated Check (on a % dry matter basis): 12 % check
  Zinc, Percent Increase Over the Untreated Check (on a % dry matter basis): 38 % check
